Target: T1, ATIYA1 (Arabidopsis thaliana, UniProt F4HP22)
T1 construct: gene At1g13130; secreted from Komagataella phaffii X-33 (pPICZalpha-A), N-glycosylated, Ni-NTA purified
Test: HPAEC-PAD hydrolysis time course
Assay type: biochemical
Details: 100 µM substrate, 10 nM enzyme, 0.1 M sodium acetate pH 5.0, 30°C

T1 sequence (F4HP22 entry or part of it): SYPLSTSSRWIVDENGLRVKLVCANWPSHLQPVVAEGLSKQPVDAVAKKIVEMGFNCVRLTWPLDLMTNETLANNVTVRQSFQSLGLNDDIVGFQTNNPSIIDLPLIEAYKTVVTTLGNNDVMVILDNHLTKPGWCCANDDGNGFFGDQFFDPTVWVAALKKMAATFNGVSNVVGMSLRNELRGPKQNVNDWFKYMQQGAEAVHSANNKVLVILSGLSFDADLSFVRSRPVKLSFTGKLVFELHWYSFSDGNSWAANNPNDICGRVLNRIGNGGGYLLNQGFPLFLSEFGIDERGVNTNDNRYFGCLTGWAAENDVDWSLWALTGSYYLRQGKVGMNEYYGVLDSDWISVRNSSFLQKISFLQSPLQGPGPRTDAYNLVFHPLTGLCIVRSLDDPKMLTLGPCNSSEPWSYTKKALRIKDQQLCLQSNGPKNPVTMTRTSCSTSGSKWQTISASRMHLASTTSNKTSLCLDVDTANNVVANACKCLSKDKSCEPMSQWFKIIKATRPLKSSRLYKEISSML

Row | SMILES | HPAEC-PAD hydrolysis time course
1 | CO[C@@H]1O[C@H](CO[C@@H]2O[C@H](CO[C@@H]3O[C@H](CO[C@@H]4O[C@H](CO[C@@H]5O[C@H](CO[C@@H]6O[C@H](CO)[C@H](O)[C@H](O)[C@H]6O)[C@H](O)[C@H](O)[C@H]5O)[C@H](O)[C@H](O)[C@H]4O)[C@H](O)[C@H](O)[C@H]3O)[C@H](O)[C@H](O)[C@H]2O)[C@H](O)[C@H](O)[C@H]1O [methyl-β-1,6-galactohexaoside] | preferring higher degrees of polymerization such as methyl-β-1,6-galactopentaoside and methyl-β-1,6-galactohexaoside
2 | CO[C@@H]1O[C@H](CO[C@@H]2O[C@H](CO[C@@H]3O[C@H](CO[C@@H]4O[C@H](CO[C@@H]5O[C@H](CO)[C@H](O)[C@H](O)[C@H]5O)[C@H](O)[C@H](O)[C@H]4O)[C@H](O)[C@H](O)[C@H]3O)[C@H](O)[C@H](O)[C@H]2O)[C@H](O)[C@H](O)[C@H]1O [methyl-β-1,6-galactopentaoside] | preferring higher degrees of polymerization such as methyl-β-1,6-galactopentaoside and methyl-β-1,6-galactohexaoside
